Patent publication US12186331B2, “Compositions comprising at least one n-acetylated and at least one fucosylated oligosaccharide for use in the promotion of digestive capacity in infants and young children” (SOCIETE DES PRODUITS NESTLE S.A., priority 2017, dated 2025)
Entries after “also recorded” stand apart in the source; their conditions may differ.

System: villi in the ileum of IUGR rats
Test: Villi length in the ileum of young rats with intra-uterine growth retardation (IUGR) fed HMO-supplemented diet
Assay type: in vivo, Sprague-Dawley rats
Conditions: IUGR rat pups, 3 g/kg body weight by gavage d7-d21, 4.5% in diet d22-d57, sacrifice at day 57, compared with IUGR group and other groups
Description: Three groups of time-mated pregnant Sprague-Dawley female rats were bought from Charles River laboratories. One group was submitted to food restriction of 60% during the last 10 days of gestation and their offspring were cross-fostered to normally fed rats. A second group of pregnant females was normally fed and their offspring cross-fostered among the same group of dams. […] Normal-weight offspring born from unrestricted dams and fed a normal non-supplemented diet; • IUGR group (negative control; n=20): IUGR rats being fed a normal diet after birth; • IUGR rats+HMO (test groups): During the experiment, they were reared by their mothers for 21 days and supplemented with HMOs (2FL, LNnT or the Mix of 2FL and LNnT). At weaning, they were fed a diet supplemented with the same HMOs, see details below. […] All rat pups were fed from birth (d=1) up to 57 days (d=57) based on the following protocol: • d1 to d6: all groups of rats were nursed by dam (mothers' milk only); • d7 to d21: all rats were nursed by dam (mothers' milk only). But in the test groups, 3 g/kg body weight of HMO were also administered by gavage: • 3 g/kg body weight of 2FL, for the IUGR/2FL group; • 3 g/kg body weight of LNnT, for the IUGR/LNnT group; • 3 g/kg body weight of a mix of LNnT and 2FL at a 1:2 weight ratio, for the IUGR/HMOs mix group; • […] to […]: all rats were fed a diet as detailed in Table 2 below. Rats were sacrificed at day 57 after a 6-hr fasting period and samples of the small intestine were collected. The length of the villi was measured on a sample of the ileum. One 1-cm sample from the ileum (1 cm cranial from caecum) was collected and flushed with PBS (Sigma D8537). This section was fixed and processed accordingly for histological and morphometric analysis. Two consecutive 4 μm-thick sections of fixed tissue were stained manually with hematoxylin and eosin to determine villus height. […] Ten randomly selected villi were measured in two different segments to determine the mean villi length.

| Compound | mean villi length in the ileum | mean villi length in the ileum (listed as 2-FL) |
| --- | --- | --- |
| 2′-fucosyllactose [2FL] | neither 2FL, nor LNnT achieved a statistically significant effect when used alone | no significant difference with the IUGR group |
| CC(=O)N[C@H]1[C@H](O[C@H]2[C@@H](O)[C@@H](CO)O[C@@H](O[C@H]3[C@H](O)[C@@H](O)C(O)O[C@@H]3CO)[C@@H]2O)O[C@H](CO)[C@@H](O[C@@H]2O[C@H](CO)[C@H](O)[C@H](O)[C@H]2O)[C@@H]1O (mixture of isomers) [LNnT, lacto-N-neotetraose] | neither 2FL, nor LNnT achieved a statistically significant effect when used alone; also recorded: no significant difference with the IUGR group |  |
